ChEMBL document CHEMBL1201862, “PubChem BioAssay data set” (2004)
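96-well plates; 48 h exposure; 5 concentrations. Endpoints by linear interpolation between flanking doses. Not reached: highest tested concentration assigned. Abbreviation: GI50, concentration required for 50% inhibition of growth.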 The source made the active and inactive calls. Cut-off read from the data, not from the text of the source: active = GI50 up to about 1.1 µM and inactive = higher.

Assays:
Assay in all cases: growth of human tumour cells (NCI), 48 h
[1] = system: SF-539
[2] = system: HOP-62
[3] = system: SK-MEL-2
[4] = system: KM-20L2
[5] = system: M14
[6] = system: SR
[7] = system: OVCAR-4
[8] = system: SK-MEL-28
[9] = system: K562
[10] = system: HL-60
[11] = system: SK-OV-3
[12] = system: UACC-62
[13] = system: HOP-92
[14] = system: SF-295
[15] = system: LOX IMVI
[16] = system: SF-268
[17] = system: A498
[18] = system: NCI-H23
[19] = system: OVCAR-3
[20] = system: DU-145
[21] = system: PC-3
[22] = system: NCI/ADR-RES
[23] = system: SNB-78
[24] = system: DLD-1
[25] = system: ACHN
[26] = system: CCRF-CEM
[27] = system: MCF7
[28] = system: Malme-3M
[29] = system: Hs-578T
[30] = system: OVCAR-8
[31] = system: UO-31
[32] = system: SNB-75
[33] = system: BT-549
[34] = system: SK-MEL-5
[35] = system: HCT-15
[36] = system: XF498
[37] = system: KM12
[38] = system: MOLT-4
[39] = system: EKVX
[40] = system: M19-MEL
[41] = system: MDA-MB-435
[42] = system: RXF 631
[43] = system: IGROV-1
[44] = system: HCT-116
[45] = system: RPMI-8226
[46] = system: NCI-H226
[47] = system: SW-620
[48] = system: DMS-114
[49] = system: 786-0
[50] = system: NCI-H460
[51] = system: CAKI-1
[52] = system: HT-29
[53] = system: TK-10
[54] = system: COLO 205
[55] = system: NCI-H522
[56] = system: UACC-257
[57] = system: OVCAR-5
[58] = system: RXF 393
[59] = system: SN12C
[60] = system: MDA-MB-231
[61] = system: LXFL 529
[62] = system: HOP-18
[63] = system: U-251
[64] = system: MDA-N
[65] = system: HCC 2998
[66] = system: SNB-19
[67] = system: A549

Structure (SMILES): CC(C)=C1CCC(CN2CCOCC2)C1=O (configuration not stated)
- GI50 [1]: 17.4 µM (inactive)
- GI50 [2]: > 55.5 µM (inactive)
- GI50 [3]: 19 µM (inactive)
- GI50 [4]: 16.4 µM (inactive)
- GI50 [5]: 3.52 µM (inactive)
- GI50 [6]: 3.57 µM (inactive)
- GI50 [7]: 8.18 µM (inactive)
- GI50 [8]: 14.9 µM (inactive)
- GI50 [9]: 1.72 µM (inactive)
- GI50 [10]: 4.12 µM (inactive)
- GI50 [11]: > 100 µM (inactive)
- GI50 [12]: 17 µM (inactive)
- GI50 [13]: 3.95 µM (inactive)
- GI50 [14]: 98.4 µM (inactive)
- GI50 [15]: 19.9 µM (inactive)
- GI50 [16]: 15.2 µM (inactive)
- GI50 [17]: 33.7 µM (inactive)
- GI50 [18]: 17.7 µM (inactive)
- GI50 [19]: 8.18 µM (inactive)
- GI50 [20]: 16.4 µM (inactive)
- GI50 [21]: 17.5 µM (inactive)
- GI50 [22]: 13.3 µM (inactive)
- GI50 [23]: 9.38 µM (inactive)
- GI50 [24]: 4.38 µM (inactive)
- GI50 [25]: 9.84 µM (inactive)
- GI50 [26]: 2.49 µM (inactive)
- GI50 [27]: 4.14 µM (inactive)
- GI50 [28]: 3.58 µM (inactive)
- GI50 [29]: 28.2 µM (inactive)
- GI50 [30]: 7.55 µM (inactive)
- GI50 [31]: 18.1 µM (inactive)
- GI50 [32]: 4.72 µM (inactive)
- GI50 [33]: 17.3 µM (inactive)
- GI50 [34]: 15.9 µM (inactive)
- GI50 [35]: 5.22 µM
- GI50 [36]: 12.7 µM (inactive)
- GI50 [37]: 29.4 µM (inactive)
- GI50 [38]: 2.34 µM (inactive)
- GI50 [39]: 17.7 µM (inactive)
- GI50 [40]: 22.1 µM (inactive)
- GI50 [41]: 15.3 µM (inactive)
- GI50 [42]: 9.23 µM (inactive)
- GI50 [43]: 20.3 µM (inactive)
- GI50 [44]: 4.43 µM (inactive)
- GI50 [45]: 0.953 µM (active)
- GI50 [46]: 21.2 µM (inactive)
- GI50 [47]: 1.76 µM (inactive)
- GI50 [48]: 7.89 µM (inactive)
- GI50 [49]: 3.79 µM (inactive)
- GI50 [50]: 27.2 µM (inactive)
- GI50 [51]: 0.348 µM (active)
- GI50 [52]: 8.65 µM (inactive)
- GI50 [53]: 6.21 µM (inactive)
- GI50 [54]: 4.66 µM (inactive)
- GI50 [55]: 0.0454 µM (active)
- GI50 [56]: 16.2 µM (inactive)
- GI50 [57]: 18.2 µM (inactive)
- GI50 [58]: 2.07 µM (inactive)
- GI50 [59]: 8.59 µM (inactive)
- GI50 [60]: 17.4 µM (inactive)
- GI50 [61]: 2.38 µM (inactive)
- GI50 [62]: 9.35 µM (inactive)
- GI50 [63]: 32.1 µM (inactive)
- GI50 [64]: 19.1 µM (inactive)
- GI50 [65]: 15.4 µM (inactive)
- GI50 [66]: 60.5 µM (inactive)
- GI50 [67]: 20.4 µM (inactive)
